Here are results for ten compounds from patent US20250000814A1 (DONG-A ST CO., LTD., priority 2021, published 2025).

The conditions of data set [1]: cited from earlier work.
The nature of data set [2]: Solubility evaluation for the solubilizer propylene glycol monocaprylate. As to conditions: for Propylene glycol monocaprylate solubility: 25° C., 24 hours, 50 mg as memantine free base added to 1 mL. The procedure:
The resulting mixture was treated in a shaking constant temperature bath at 25° C. for 24 hours.
<Liquid Chromatography Conditions>

Data set [3] can be described thus: Oil phase skin permeability screening, Franz diffusion cell. Format: in vitro ADME. Conditions: 200 ul of 50 mg/mL salt in propylene glycol monocaprylate, human cadaver skin; for Skin penetration rate: 7 days. How it is done:
A pH 7.4 phosphate buffer containing 10% ethanol and 0.02% sodium azide as an aqueous solution was added to the receptor chamber of the Franz diffusion cell, and with the temperature maintained at 32±0.5° C., it was rotated at 600 rpm and stirred.

Structures can show the parent of a compound that is named as a salt. Some results are limits rather than exact numbers.

As for `CC12CC3CC(C)(C1)CC(N)(C3)C2` [free base, Memantine free base], in data set [1], the “log P, the partition coefficient” value is 3.28. As for `CC12CC3CC(C)(C1)CC(N)(C3)C2.CC12CC3CC(C)(C1)CC(N)(C3)C2.O=C(O)CCCCCC(=O)O` [hemi-pimelate, Memantine Hemi-Pimelate], the “Propylene glycol monocaprylate solubility” value in data set [2] was less than 5000 µg/mL.

For `CC12CC3CC(C)(C1)CC(N)(C3)C2.CC12CC3CC(C)(C1)CC(N)(C3)C2.O=C(O)CCCCCCC(=O)O` [hemi-suberate, Memantine Hemi-Suberate], the “Propylene glycol monocaprylate solubility” value in data set [2] is less than 5000 µg/mL. One may read the solubility as how much of the substance goes into solution per volume. A high value points to a readily soluble substance. On to `CC12CC3CC(C)(C1)CC(N)(C3)C2` [hydrochloride, Memantine hydrochloride, reference compound], for which the solubility at 24 h in data set [2] (25 °C, oil or lipid, thermodynamic from solid) was less than 5000 µg/mL. As for `CC(=O)CCC(=O)O.CC12CC3CC(C)(C1)CC(N)(C3)C2` [levulinate, Memantine Levulinate, reference compound], in data set [3], the “Skin permeability for 7 days” value amounted to 3661 ug/cm2 and the Skin penetration rate was 22 ug/cm2/hr. For the compound Memantine Hemi-Fumarate, the “Propylene glycol monocaprylate solubility” value in data set [2] was less than 5000 µg/mL. Regarding Memantine Hemi-Malate, the “Propylene glycol monocaprylate solubility” value in data set [2] is less than 5000 µg/mL.

For Memantine Hemi-Maleate, the “Propylene glycol monocaprylate solubility” value in data set [2] is less than 5000 µg/mL. Consider Memantine Hemi-Naphthalene Disulfonate, for which the “Propylene glycol monocaprylate solubility” value in data set [2] is less than 5000 µg/mL. Regarding Memantine Myristate, in data set [3], the “Skin permeability for 7 days” value is 1083 ug/cm2 and the Skin penetration rate amounted to 6 ug/cm2/hr.
